According to the NIST ThermoML archive (doi:10.1021/acs.jced.8b01135):
± gives the expanded uncertainty stated by the source.

Assay: xn = mol fraction of the nth substance listed
Settings: 102 kPa, Liquid; for speed of sound: Frequency=3 MHz, Single path-length method; for mass density: Vibrating tube method; for viscosity: Concentric cylinders viscometry

## CCCCCCCCC1CCCCC1 [octylcyclohexane] + CCCCCCCCCCCC
288.15 K, x1 = 0.1
  speed of sound: 1326.2 ± 0.8 m/s
  mass density: 759.33 ± 0.71 kg/m3
288.15 K, x1 = 0.1998
  speed of sound: 1335.1 ± 0.8 m/s
  mass density: 766.24 ± 0.71 kg/m3
288.15 K, x1 = 0.3002
  speed of sound: 1344.1 ± 0.9 m/s
  mass density: 772.95 ± 0.71 kg/m3
288.15 K, x1 = 0.3998
  speed of sound: 1353.1 ± 0.9 m/s
  mass density: 779.63 ± 0.71 kg/m3
288.15 K, x1 = 0.4948
  speed of sound: 1361.6 ± 0.9 m/s
  mass density: 785.9 ± 0.71 kg/m3
288.15 K, x1 = 0.5997
  speed of sound: 1370.8 ± 0.9 m/s
  mass density: 792.69 ± 0.71 kg/m3
288.15 K, x1 = 0.6996
  speed of sound: 1379.4 ± 0.9 m/s
  mass density: 798.98 ± 0.71 kg/m3
288.15 K, x1 = 0.7999
  speed of sound: 1388.2 ± 1 m/s
  mass density: 805.34 ± 0.72 kg/m3
288.15 K, x1 = 0.9
  speed of sound: 1396.9 ± 1 m/s
  mass density: 811.48 ± 0.72 kg/m3
288.15 K, x1 = 1
  speed of sound: 1405.5 ± 1 m/s
  mass density: 817.58 ± 0.72 kg/m3
293.15 K, x1 = 0.1
  viscosity: 1.61 ± 0.02 mPa·s
  speed of sound: 1306.9 ± 0.8 m/s
  mass density: 755.72 ± 0.71 kg/m3
293.15 K, x1 = 0.1998
  viscosity: 1.74 ± 0.02 mPa·s
  speed of sound: 1315.8 ± 0.8 m/s
  mass density: 762.65 ± 0.71 kg/m3
293.15 K, x1 = 0.3002
  viscosity: 1.91 ± 0.02 mPa·s
  speed of sound: 1324.8 ± 0.9 m/s
  mass density: 769.38 ± 0.71 kg/m3
293.15 K, x1 = 0.3998
  viscosity: 2.05 ± 0.02 mPa·s
  speed of sound: 1333.9 ± 0.9 m/s
  mass density: 776.08 ± 0.71 kg/m3
293.15 K, x1 = 0.4948
  viscosity: 2.23 ± 0.02 mPa·s
  speed of sound: 1342.3 ± 0.9 m/s
  mass density: 782.36 ± 0.71 kg/m3
293.15 K, x1 = 0.5997
  viscosity: 2.44 ± 0.02 mPa·s
  speed of sound: 1351.6 ± 0.9 m/s
  mass density: 789.17 ± 0.71 kg/m3
293.15 K, x1 = 0.6996
  viscosity: 2.66 ± 0.02 mPa·s
  speed of sound: 1360.3 ± 0.9 m/s
  mass density: 795.48 ± 0.71 kg/m3
293.15 K, x1 = 0.7999
  viscosity: 2.91 ± 0.03 mPa·s
  speed of sound: 1369.1 ± 1 m/s
  mass density: 801.86 ± 0.72 kg/m3
293.15 K, x1 = 0.9
  viscosity: 3.2 ± 0.03 mPa·s
  speed of sound: 1377.8 ± 1 m/s
  mass density: 808.01 ± 0.72 kg/m3
293.15 K, x1 = 1
  viscosity: 3.52 ± 0.03 mPa·s
  speed of sound: 1386.4 ± 1 m/s
  mass density: 814.13 ± 0.72 kg/m3
298.15 K, x1 = 0.1
  speed of sound: 1287.6 ± 0.8 m/s
  mass density: 752.11 ± 0.71 kg/m3
298.15 K, x1 = 0.1998
  speed of sound: 1296.5 ± 0.8 m/s
  mass density: 759.06 ± 0.71 kg/m3
298.15 K, x1 = 0.3002
  speed of sound: 1305.5 ± 0.9 m/s
  mass density: 765.81 ± 0.71 kg/m3
298.15 K, x1 = 0.3998
  speed of sound: 1314.8 ± 0.9 m/s
  mass density: 772.53 ± 0.71 kg/m3
298.15 K, x1 = 0.4948
  speed of sound: 1323.4 ± 0.9 m/s
  mass density: 778.83 ± 0.71 kg/m3
298.15 K, x1 = 0.5997
  speed of sound: 1332.6 ± 0.9 m/s
  mass density: 785.65 ± 0.71 kg/m3
298.15 K, x1 = 0.6996
  speed of sound: 1341.2 ± 0.9 m/s
  mass density: 791.98 ± 0.71 kg/m3
298.15 K, x1 = 0.7999
  speed of sound: 1350.2 ± 1 m/s
  mass density: 798.37 ± 0.72 kg/m3
298.15 K, x1 = 0.9
  speed of sound: 1358.7 ± 1 m/s
  mass density: 804.53 ± 0.72 kg/m3
298.15 K, x1 = 1
  speed of sound: 1367.4 ± 1 m/s
  mass density: 810.67 ± 0.72 kg/m3
303.15 K, x1 = 0.1
  viscosity: 1.36 ± 0.02 mPa·s
  speed of sound: 1268.4 ± 0.8 m/s
  mass density: 748.5 ± 0.71 kg/m3
303.15 K, x1 = 0.1998
  viscosity: 1.47 ± 0.02 mPa·s
  speed of sound: 1277.3 ± 0.8 m/s
  mass density: 755.45 ± 0.71 kg/m3
303.15 K, x1 = 0.3002
  viscosity: 1.6 ± 0.02 mPa·s
  speed of sound: 1286.4 ± 0.9 m/s
  mass density: 762.24 ± 0.71 kg/m3
303.15 K, x1 = 0.3998
  viscosity: 1.69 ± 0.02 mPa·s
  speed of sound: 1295.9 ± 0.9 m/s
  mass density: 768.97 ± 0.71 kg/m3
303.15 K, x1 = 0.4948
  viscosity: 1.82 ± 0.02 mPa·s
  speed of sound: 1304.4 ± 0.9 m/s
  mass density: 775.29 ± 0.71 kg/m3
303.15 K, x1 = 0.5997
  viscosity: 1.98 ± 0.02 mPa·s
  speed of sound: 1313.8 ± 0.9 m/s
  mass density: 782.13 ± 0.71 kg/m3
303.15 K, x1 = 0.6996
  viscosity: 2.15 ± 0.02 mPa·s
  speed of sound: 1322.2 ± 0.9 m/s
  mass density: 788.47 ± 0.72 kg/m3
303.15 K, x1 = 0.7999
  viscosity: 2.34 ± 0.02 mPa·s
  speed of sound: 1331.4 ± 1 m/s
  mass density: 794.88 ± 0.72 kg/m3
303.15 K, x1 = 0.9
  viscosity: 2.55 ± 0.02 mPa·s
  speed of sound: 1339.9 ± 1 m/s
  mass density: 801.06 ± 0.72 kg/m3
303.15 K, x1 = 1
  viscosity: 2.79 ± 0.03 mPa·s
  speed of sound: 1348.6 ± 1 m/s
  mass density: 807.2 ± 0.72 kg/m3
313.15 K, x1 = 0.1
  viscosity: 1.16 ± 0.02 mPa·s
  speed of sound: 1230.7 ± 0.8 m/s
  mass density: 741.26 ± 0.71 kg/m3
313.15 K, x1 = 0.1998
  viscosity: 1.24 ± 0.02 mPa·s
  speed of sound: 1239.6 ± 0.8 m/s
  mass density: 748.26 ± 0.71 kg/m3
313.15 K, x1 = 0.3002
  viscosity: 1.33 ± 0.02 mPa·s
  speed of sound: 1248.9 ± 0.9 m/s
  mass density: 755.08 ± 0.71 kg/m3
313.15 K, x1 = 0.3998
  viscosity: 1.43 ± 0.02 mPa·s
  speed of sound: 1258.6 ± 0.9 m/s
  mass density: 761.84 ± 0.71 kg/m3
313.15 K, x1 = 0.4948
  viscosity: 1.52 ± 0.02 mPa·s
  speed of sound: 1267.1 ± 0.9 m/s
  mass density: 768.19 ± 0.71 kg/m3
313.15 K, x1 = 0.5997
  viscosity: 1.64 ± 0.02 mPa·s
  speed of sound: 1276.7 ± 0.9 m/s
  mass density: 775.07 ± 0.72 kg/m3
313.15 K, x1 = 0.6996
  viscosity: 1.77 ± 0.02 mPa·s
  speed of sound: 1285.1 ± 0.9 m/s
  mass density: 781.45 ± 0.72 kg/m3
313.15 K, x1 = 0.7999
  viscosity: 1.92 ± 0.02 mPa·s
  speed of sound: 1294.4 ± 1 m/s
  mass density: 787.89 ± 0.72 kg/m3
313.15 K, x1 = 0.9
  viscosity: 2.08 ± 0.02 mPa·s
  speed of sound: 1302.8 ± 1 m/s
  mass density: 794.1 ± 0.72 kg/m3
313.15 K, x1 = 1
  viscosity: 2.26 ± 0.02 mPa·s
  speed of sound: 1311.6 ± 1 m/s
  mass density: 800.28 ± 0.72 kg/m3
323.15 K, x1 = 0.1
  viscosity: 1 ± 0.02 mPa·s
  speed of sound: 1193.7 ± 0.8 m/s
  mass density: 734 ± 0.71 kg/m3
323.15 K, x1 = 0.1998
  viscosity: 1.07 ± 0.02 mPa·s
  speed of sound: 1202.7 ± 0.8 m/s
  mass density: 741.03 ± 0.71 kg/m3
323.15 K, x1 = 0.3002
  viscosity: 1.14 ± 0.02 mPa·s
  speed of sound: 1212.2 ± 0.9 m/s
  mass density: 747.89 ± 0.71 kg/m3
323.15 K, x1 = 0.3998
  viscosity: 1.23 ± 0.02 mPa·s
  speed of sound: 1221.9 ± 0.9 m/s
  mass density: 754.69 ± 0.71 kg/m3
323.15 K, x1 = 0.4948
  viscosity: 1.31 ± 0.02 mPa·s
  speed of sound: 1230.5 ± 0.9 m/s
  mass density: 761.08 ± 0.72 kg/m3
323.15 K, x1 = 0.5997
  viscosity: 1.38 ± 0.02 mPa·s
  speed of sound: 1240.1 ± 0.9 m/s
  mass density: 768 ± 0.72 kg/m3
323.15 K, x1 = 0.6996
  viscosity: 1.48 ± 0.02 mPa·s
  speed of sound: 1248.7 ± 0.9 m/s
  mass density: 774.42 ± 0.72 kg/m3
323.15 K, x1 = 0.7999
  viscosity: 1.6 ± 0.02 mPa·s
  speed of sound: 1258.1 ± 1 m/s
  mass density: 780.88 ± 0.72 kg/m3
323.15 K, x1 = 0.9
  viscosity: 1.73 ± 0.02 mPa·s
  speed of sound: 1266.6 ± 1 m/s
  mass density: 787.14 ± 0.72 kg/m3
323.15 K, x1 = 1
  viscosity: 1.87 ± 0.02 mPa·s
  speed of sound: 1275.5 ± 1 m/s
  mass density: 793.35 ± 0.72 kg/m3
333.15 K, x1 = 0.1
  viscosity: 0.865 ± 0.021 mPa·s
  speed of sound: 1157.6 ± 0.8 m/s
  mass density: 726.7 ± 0.71 kg/m3
333.15 K, x1 = 0.1998
  viscosity: 0.923 ± 0.021 mPa·s
  speed of sound: 1166.9 ± 0.8 m/s
  mass density: 733.78 ± 0.71 kg/m3
333.15 K, x1 = 0.3002
  viscosity: 0.984 ± 0.021 mPa·s
  speed of sound: 1176.4 ± 0.9 m/s
  mass density: 740.68 ± 0.71 kg/m3
333.15 K, x1 = 0.3998
  viscosity: 1.06 ± 0.02 mPa·s
  speed of sound: 1186 ± 0.9 m/s
  mass density: 747.52 ± 0.72 kg/m3
333.15 K, x1 = 0.4948
  viscosity: 1.12 ± 0.02 mPa·s
  speed of sound: 1194.8 ± 0.9 m/s
  mass density: 753.94 ± 0.72 kg/m3
333.15 K, x1 = 0.5997
  viscosity: 1.18 ± 0.02 mPa·s
  speed of sound: 1204.5 ± 0.9 m/s
  mass density: 760.9 ± 0.72 kg/m3
333.15 K, x1 = 0.6996
  viscosity: 1.26 ± 0.02 mPa·s
  speed of sound: 1213.3 ± 0.9 m/s
  mass density: 767.37 ± 0.72 kg/m3
333.15 K, x1 = 0.7999
  viscosity: 1.36 ± 0.02 mPa·s
  speed of sound: 1222.7 ± 1 m/s
  mass density: 773.86 ± 0.72 kg/m3
333.15 K, x1 = 0.9
  viscosity: 1.46 ± 0.02 mPa·s
  speed of sound: 1231.5 ± 1 m/s
  mass density: 780.16 ± 0.72 kg/m3
333.15 K, x1 = 1
  viscosity: 1.57 ± 0.02 mPa·s
  speed of sound: 1240.3 ± 1 m/s
  mass density: 786.41 ± 0.72 kg/m3
